The subject of this experiment is nude mice, LOX melanoma ip, survival T/C. Briefly: NCI In Vivo Anticancer Drug Screen. Data for tumor model Human Amelanotic Melanoma (LOX) (intraperitoneal) in NU/NU BALB/C (nude) mice. Conditions: endpoint: median survival time, schedule: Q04DX003 (ip), higher = longer survival. On the procedure: The antitumor activity of compounds was measured in mice bearing transplantable tumors. Survival or tumor size were measured and the results are expressed as the measurement made in the treated group (T) divided by the measurement made in the vehicle treated control group (C). The tumor model used in this assay is Human Amelanotic Melanoma (LOX) (intraperitoneal) in NU/NU BALB/C (nude) mice

[1] abbreviates: dose: 25.0 mg/kg/injection, vehicle: saline with Tween-80.
Where [2] appears, read: dose: 50.0 mg/kg/injection, vehicle: saline with Tween-80.
The mark [3] stands for this setting: dose: 100.0 mg/kg/injection, vehicle: saline with Tween-80.
Setting [4] is: dose: 75.0 mg/kg/injection, vehicle: saline.
[5] abbreviates: dose: 150.0 mg/kg/injection, vehicle: saline.
Where [6] appears, read: dose: 12.5 mg/kg/injection, vehicle: Klucel (hydroxypropylcellulose) (HPC).
Setting [7] is: dose: 50.0 mg/kg/injection, vehicle: Klucel (hydroxypropylcellulose) (HPC).

Several values for one entry are separate records, joined by “and”; a condition that tells them apart may be missing. Equal values may be shown once. Inconclusive results and toxic doses are left out.

With `O=C(NC(Cc1ccc(I)cc1)C(=O)O)c1ccc(Br)cc1` (stereo unspecified), the T/C reads like this: (dose: 18.75 mg/kg/injection, vehicle: other) 94 % of control; (dose: 18.75 mg/kg/injection, vehicle: sodium bicarbonate) 111 % of control; (dose: 37.5 mg/kg/injection, vehicle: other) 151 % of control; (dose: 37.5 mg/kg/injection, vehicle: sodium bicarbonate) 107 % of control; (dose: 75.0 mg/kg/injection, vehicle: other) 91 % of control; (dose: 75.0 mg/kg/injection, vehicle: sodium bicarbonate) 96 % of control. In addition, the T/C runs as follows: (dose: 150.0 mg/kg/injection, vehicle: other) 98 % of control; (dose: 150.0 mg/kg/injection, vehicle: sodium bicarbonate) 86 % of control; (dose: 300.0 mg/kg/injection, vehicle: sodium bicarbonate) 106 % of control.

In the case of `CC1/C=C/C=C/CC/C=C/C=C/C=C/C=C/C(OC2OC(C)C(O)C(N)C2O)CC2OC(CC(O)C(O)CCC(O)CC(O)CC(O)CC(=O)OC(C)C(C)C1O)CC(O)C2C(=O)O` (stereo unspecified), the T/C by setting is: under setting [1], 101 % of control; under setting [2], 101 % of control; under setting [3], 111 % of control.

`COc1ccc(OC)c(Cc2cnc3nc(N)nc(N)c3c2C)c1`: the T/C reads like this: (dose: 7.5 mg/kg/injection, vehicle: water) 99 % of control; (dose: 15.0 mg/kg/injection, vehicle: water) 105 % of control; (dose: 30.0 mg/kg/injection, vehicle: water) 101 % of control; (dose: 37.5 mg/kg/injection, vehicle: water) 91 % of control; (dose: 60.0 mg/kg/injection, vehicle: water) 107 % of control; (dose: 75.0 mg/kg/injection, vehicle: water) 88 % of control.

`c1cn[nH]c1`: the T/C reads like this: under setting [4], 109 % of control; under setting [5], 107 % of control.

In the case of `COc1cc2c(c(OC)c1OC)-c1ccc(OC)c(=O)cc1[C@@H](NC(C)=O)CC2`, the T/C (dose: 0.13 mg/kg/injection, vehicle: saline) was 162 % of control; the T/C (dose: 0.25 mg/kg/injection, vehicle: saline) is 150 % of control and 179 % of control and 180 % of control; the T/C (dose: 0.5 mg/kg/injection, vehicle: saline) is 171 % of control and 197 % of control and 220 % of control; the T/C (dose: 1.0 mg/kg/injection, vehicle: saline) is 229 % of control and 232 % of control and 280 % of control; the T/C (dose: 2.0 mg/kg/injection, vehicle: saline) is 189 % of control and 222 % of control and 262 % of control; the T/C (dose: 4.0 mg/kg/injection, vehicle: saline) is 268 % of control.

With `Cc1ccc(C2=CSC3=NCCN23)cc1Cl`, the T/C by setting is: under setting [6], 97 % of control; (dose: 25.0 mg/kg/injection, vehicle: Klucel (hydroxypropylcellulose) (HPC)) 96 % of control; under setting [7], 101 % of control.

`CNC(=S)SC1=NS(=O)(=O)c2ccccc2N1`: the T/C under setting [7] is 100 % of control; the T/C (dose: 100.0 mg/kg/injection, vehicle: Klucel (hydroxypropylcellulose) (HPC)) is 104 % of control; the T/C (dose: 200.0 mg/kg/injection, vehicle: Klucel (hydroxypropylcellulose) (HPC)) was 104 % of control.

`CN=C(NC)c1ccc(NC(=O)/C=C\c2ccc(/C=C/C(=O)Nc3ccc(C(=NC)NC)cc3)cc2)cc1`: the T/C (dose: 0.78 mg/kg/injection, vehicle: Klucel (hydroxypropylcellulose) (HPC)) was 104 % of control; the T/C (dose: 1.56 mg/kg/injection, vehicle: Klucel (hydroxypropylcellulose) (HPC)) is 109 % of control; the T/C (dose: 2.0 mg/kg/injection, vehicle: Klucel (hydroxypropylcellulose) (HPC)) is 90 % of control; the T/C (dose: 2.25 mg/kg/injection, vehicle: Klucel (hydroxypropylcellulose) (HPC)) was 101 % of control; the T/C (dose: 3.75 mg/kg/injection, vehicle: Klucel (hydroxypropylcellulose) (HPC)) is 87 % of control; the T/C (dose: 4.0 mg/kg/injection, vehicle: Klucel (hydroxypropylcellulose) (HPC)) was 105 % of control. Further, the T/C (dose: 6.0 mg/kg/injection, vehicle: Klucel (hydroxypropylcellulose) (HPC)) is 111 % of control; the T/C (dose: 10.0 mg/kg/injection, vehicle: Klucel (hydroxypropylcellulose) (HPC)) was 105 % of control; the T/C (dose: 11.0 mg/kg/injection, vehicle: Klucel (hydroxypropylcellulose) (HPC)) is 98 % of control; the T/C under setting [6] was 109 % of control; the T/C (dose: 17.0 mg/kg/injection, vehicle: Klucel (hydroxypropylcellulose) (HPC)) was 90 % of control; the T/C (dose: 18.0 mg/kg/injection, vehicle: Klucel (hydroxypropylcellulose) (HPC)) was 95 % of control.

Regarding `COC12[C@@H]3N[C@@H]3CN1C1=C(C(=O)C(NCCSSCCNC3=C(C)C(=O)C4=C(C3=O)C(COC(N)=O)[C@]3(OC)C5N[C@@H]5CN43)=C(C)C1=O)[C@@H]2COC(N)=O` (stereo partly specified), the T/C is, setting by setting: (dose: 1.57 mg/kg/injection, vehicle: DMSO) 121 % of control; (dose: 12.5 mg/kg/injection, vehicle: DMSO) 331 % of control.

Turning to `NCc1cc(O)c(O)c(O)c1`, the T/C runs as follows: under setting [4], 107 % of control; under setting [5], 101 % of control; (dose: 600.0 mg/kg/injection, vehicle: saline) 102 % of control.

Consider `CC1OC2CC(O)C1(O)C1=C2C(O)=C(C(N)=O)C(=N)C1=O` (stereo unspecified), for which the T/C is 106 % of control (dose: 0.32 mg/kg/injection, vehicle: saline + Tween-80 + alcohol); 99 % of control (dose: 0.63 mg/kg/injection, vehicle: saline + Tween-80 + alcohol); 106 % of control (dose: 1.25 mg/kg/injection, vehicle: saline + Tween-80 + alcohol); 102 % of control (dose: 2.5 mg/kg/injection, vehicle: saline + Tween-80 + alcohol); 102 % of control (dose: 5.0 mg/kg/injection, vehicle: saline + Tween-80 + alcohol).

In the case of `ClC1(Cl)Cc2ccccc21`, the T/C runs as follows: under setting [2], 109 % of control; under setting [3], 120 % of control; (dose: 400.0 mg/kg/injection, vehicle: saline with Tween-80) 120 % of control.

`CNC(=O)c1cccc2c(Nc3ccc(NS(C)(=O)=O)cc3OC)c3cccc(C)c3nc12`: the T/C (dose: 6.25 mg/kg/injection, vehicle: suspension in saline) was 121 % of control; the T/C (dose: 15.0 mg/kg/injection, vehicle: suspension in saline) was 158 % of control; the T/C (dose: 25.0 mg/kg/injection, vehicle: suspension in saline) was 178 % of control; the T/C (dose: 41.66 mg/kg/injection, vehicle: suspension in saline) is 170 % of control; the T/C (dose: 69.44 mg/kg/injection, vehicle: suspension in saline) was 161 % of control.

Regarding `CC(=O)C[n+]1ccc(C)cc1Sc1ccccc1C`, the T/C runs as follows: (dose: 12.5 mg/kg/injection, vehicle: saline with Tween-80) 93 % of control; under setting [1], 99 % of control; under setting [2], 95 % of control; under setting [3], 88 % of control.

The values above are taken from PubChem BioAssay AID280 (DTP/NCI, 2004).
